In ChEMBL document CHEMBL4393714, “Multi-targeting protein-protein interaction inhibitors: Evolution of macrocyclic ligands with embedded carbohydrates (MECs) to improve selectivity” (Eur J Med Chem, 2019):

Assays:
[1] = Displacement of [3H] batrachotoxinin from rat sodium channel site 2 measured after 60 mins by scintillation counter method
[2] = target: 5-hydroxytryptamine receptor 2B (Homo sapiens, UniProt P41595); test: Antagonist activity at human recombinant 5-HT2B receptor in CHOK1 cells measured after 30 mins by HTRF assay; format: cell-based
Chain of 5-hydroxytryptamine receptor 2B (P41595 whole entry): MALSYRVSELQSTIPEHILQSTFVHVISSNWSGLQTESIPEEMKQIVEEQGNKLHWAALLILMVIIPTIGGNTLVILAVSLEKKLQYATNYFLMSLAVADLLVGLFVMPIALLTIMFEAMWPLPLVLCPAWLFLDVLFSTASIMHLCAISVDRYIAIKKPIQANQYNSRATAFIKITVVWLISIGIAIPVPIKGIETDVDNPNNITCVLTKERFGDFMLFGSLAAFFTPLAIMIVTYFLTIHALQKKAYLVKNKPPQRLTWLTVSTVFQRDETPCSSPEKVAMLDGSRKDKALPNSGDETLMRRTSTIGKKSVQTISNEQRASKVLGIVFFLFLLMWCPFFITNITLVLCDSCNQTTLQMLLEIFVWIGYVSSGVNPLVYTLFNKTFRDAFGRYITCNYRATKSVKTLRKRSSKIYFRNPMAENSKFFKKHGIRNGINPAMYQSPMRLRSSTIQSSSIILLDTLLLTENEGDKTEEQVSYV

[3] = target: 5-hydroxytryptamine receptor 2A (Homo sapiens, UniProt P28223); test: Displacement of [3H] ketanserin from human recombinant 5-HT2A receptor measured after 60 mins by scintillation counter method
Chain of 5-hydroxytryptamine receptor 2A (P28223 whole entry): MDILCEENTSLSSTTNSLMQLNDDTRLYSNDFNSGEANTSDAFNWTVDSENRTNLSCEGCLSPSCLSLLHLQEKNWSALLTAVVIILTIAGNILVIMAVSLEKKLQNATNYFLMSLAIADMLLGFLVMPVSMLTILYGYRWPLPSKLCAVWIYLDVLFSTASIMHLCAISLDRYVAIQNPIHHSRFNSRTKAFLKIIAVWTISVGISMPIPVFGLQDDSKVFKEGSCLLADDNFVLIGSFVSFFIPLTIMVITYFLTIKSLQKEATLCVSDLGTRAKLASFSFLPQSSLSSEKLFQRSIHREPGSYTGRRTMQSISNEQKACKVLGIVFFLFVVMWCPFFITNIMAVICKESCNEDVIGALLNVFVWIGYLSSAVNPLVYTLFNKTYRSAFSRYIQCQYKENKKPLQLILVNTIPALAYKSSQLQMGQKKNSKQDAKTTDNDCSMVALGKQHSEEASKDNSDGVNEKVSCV

[4] = target: Sodium-dependent serotonin transporter (Homo sapiens, UniProt P31645); test: Displacement of [3H] imipramine from human recombinant 5-HT transporter measured after 60 mins by scintillation counter method
Chain of Sodium-dependent serotonin transporter (P31645 whole entry): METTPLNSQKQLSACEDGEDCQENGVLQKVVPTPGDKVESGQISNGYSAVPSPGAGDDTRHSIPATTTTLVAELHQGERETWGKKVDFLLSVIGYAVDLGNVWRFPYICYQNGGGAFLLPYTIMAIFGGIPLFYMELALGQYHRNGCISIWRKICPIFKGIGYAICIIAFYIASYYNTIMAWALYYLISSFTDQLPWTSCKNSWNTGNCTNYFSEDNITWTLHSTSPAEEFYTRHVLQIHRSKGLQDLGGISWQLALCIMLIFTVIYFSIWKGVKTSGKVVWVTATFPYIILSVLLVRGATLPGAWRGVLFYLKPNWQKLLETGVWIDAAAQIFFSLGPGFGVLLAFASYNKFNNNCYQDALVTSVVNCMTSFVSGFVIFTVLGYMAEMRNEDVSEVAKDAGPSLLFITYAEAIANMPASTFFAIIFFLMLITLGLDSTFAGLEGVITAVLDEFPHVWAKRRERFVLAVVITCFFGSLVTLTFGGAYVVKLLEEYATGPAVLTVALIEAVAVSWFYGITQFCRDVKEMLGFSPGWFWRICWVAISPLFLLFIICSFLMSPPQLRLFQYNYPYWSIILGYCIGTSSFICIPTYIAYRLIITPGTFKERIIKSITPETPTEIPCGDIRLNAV

[5] = target: T1, 5-hydroxytryptamine receptor 1A (Homo sapiens, UniProt P08908); test: Displacement of [3H]OH-DPAT from human recombinant 5-HT1A receptor measured after 60 mins by scintillation counter method
T1 sequence (P08908 whole entry): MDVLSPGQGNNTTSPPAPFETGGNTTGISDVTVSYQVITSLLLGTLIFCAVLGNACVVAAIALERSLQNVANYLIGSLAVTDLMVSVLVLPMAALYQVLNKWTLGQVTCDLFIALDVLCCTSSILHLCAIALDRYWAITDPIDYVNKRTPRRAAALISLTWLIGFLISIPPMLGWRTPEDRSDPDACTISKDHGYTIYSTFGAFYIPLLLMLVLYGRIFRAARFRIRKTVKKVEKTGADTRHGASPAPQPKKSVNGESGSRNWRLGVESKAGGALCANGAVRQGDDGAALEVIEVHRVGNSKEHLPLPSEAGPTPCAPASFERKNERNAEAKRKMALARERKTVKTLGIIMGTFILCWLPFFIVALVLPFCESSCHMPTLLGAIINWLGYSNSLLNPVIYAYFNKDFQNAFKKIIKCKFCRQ

Substance-K receptor = target: T2, Substance-K receptor (Homo sapiens, UniProt P21452); test: Displacement of [125I]NKA from human recombinant NK2 receptor measured after 60 mins by scintillation counter method
T2 sequence (P21452 whole entry): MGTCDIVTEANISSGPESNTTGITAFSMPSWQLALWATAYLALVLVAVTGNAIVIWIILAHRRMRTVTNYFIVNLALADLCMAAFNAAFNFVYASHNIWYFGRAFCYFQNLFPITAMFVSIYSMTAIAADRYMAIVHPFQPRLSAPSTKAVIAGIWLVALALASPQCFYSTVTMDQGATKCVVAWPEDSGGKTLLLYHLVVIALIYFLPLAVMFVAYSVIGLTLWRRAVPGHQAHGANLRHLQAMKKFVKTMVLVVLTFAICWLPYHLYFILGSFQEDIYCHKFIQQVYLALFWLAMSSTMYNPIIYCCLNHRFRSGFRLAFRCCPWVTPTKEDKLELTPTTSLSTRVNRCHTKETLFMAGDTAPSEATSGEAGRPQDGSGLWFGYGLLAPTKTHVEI

| Structure (SMILES) | IC50 [1] | Ki [1] | IC50 [2] | Ki [2] | IC50 [3] | Ki [3] | IC50 [4] | Ki [4] | IC50 [5] | Ki [5] | IC50 (Substance-K receptor) | Ki (Substance-K receptor) |
| --- | --- | --- | --- | --- | --- | --- | --- | --- | --- | --- | --- | --- |
| COc1ccc(C(=O)O[C@H]2CC[C@@]3(C)[C@@H]4CC[C@H]5[C@]6(O)C[C@H](O)[C@@]7(O)[C@@H](CN8C[C@@H](C)CC[C@H]8[C@@]7(C)O)[C@]6(O)C[C@@]53O[C@]24O)cc1OC [VERATRIDINE] | 8.9 µM | 8.1 µM |  |  |  |  |  |  |  |  |  |  |
| CN1C[C@@H](NS(=O)(=O)N(C)C)C[C@@H]2c3cccc4c3c(cn4C)C[C@H]21 [MESULERGINE] |  |  | 0.0052 µM | 0.0028 µM |  |  |  |  |  |  |  |  |
| CC(C)CCO[C@@H]1[C@H]2OC(C)(C)O[C@H]2[C@H]2COCc3cn(nn3)C[C@H]3O[C@H](CCN(CCc4ccc5ccccc5c4)CC[C@H]1O2)[C@H](OCCC(C)C)[C@H]1OC(C)(C)O[C@H]13 | 0.46 µM | 0.41 µM | 15 µM | 8.2 µM | 8.7 µM | 4.7 µM | > 100 µM | > 100 µM | 0.68 µM | 0.42 µM | 3 µM | 1.6 µM |
